Patent publication US8455014B2, “Composition comprising Trachelospermi caulis and Pyrola japonica extracts for the treatment and prevention of inflammatory diseases” (Sinil Pharmaceutical Co., Ltd., priority 2007, dated 2013)

Assays:
NF-κB = conditions: human keratinocytes; J Dermatol Sci. 2003; 31(3):193-201; cited from earlier work
TNF-α = conditions: Int Immunopharmacol. 2004; 4(10-11):1419-29; cited from earlier work
[1] = test system: vascular permeability induced by acetic acid; experiment: Acetic acid-induced vascular permeability in mice; assay type: in vivo, ICR mice; conditions: Evans blue in abdominal cavity, OD 630 nm
Procedure: The inhibitory effect of the mixed herbal extract obtained in the above reference example 3 against vascular permeability was investigated.
Seven week old ICR mice were separated into each experimental group, orally administered with Trachelospermi caulis extract at a concentration of 20 mg/kg and 200 mg/kg, respectively, Pyrola japonica extract at a concentration of 20 mg/kg and 200 mg/kg, respectively, and a mixed […], respectively, after dissolving them in distilled water to a concentration of 0.1 mL/10 g b.wt., by using a sonde.
The dosage volume was determined based on the body weight measured on the day of experiment and the control group was only administered with distilled water, a preparation solvent, at a concentration of 0.1 mL/10 g b.wt. Phenylbutazone was orally administered with a dosage of 50 mg/kg b.wt. after suspending it in 0.5% methyl cellulose.
ICR male mice, which were fasted for 12 hours prior to the experiment, were administered with a test substance according to the method of Whittle (1964). […] The washing solution was collected from the abdominal cavity and then centrifuged at 2,000 rpm for 10 minutes and the supernatant was measured of its optical density at 630 nm by using a spectrophotometer to calculate the amount of Evan's blue solution flowed into the abdominal cavity. […]

OC[C@H]1O[C@@H](Oc2ccc(O)cc2)[C@H](O)[C@@H](O)[C@@H]1O [Arbutin]
activity of NF-κB (NF-κB): inhibit the activity of NF-κB

COc1cc(C[C@H]2C(=O)OC[C@@H]2Cc2ccc(OC)c(OC)c2)ccc1O [arctigenin]
TNF-α inhibitory activity (TNF-α): TNF-α inhibitory activity

COc1ccc(C[C@H]2COC(=O)[C@@H]2Cc2ccc(O[C@@H]3O[C@H](CO)[C@@H](O)[C@H](O)[C@H]3O)c(OC)c2)cc1OC [arctiin]
TNF-α inhibitory activity (TNF-α): TNF-α inhibitory activity

COc1ccc2c(c1)c(CC(=O)O)c(C)n2C(=O)c1ccc(Cl)cc1 [indomethacin]
Leakage of dye ([1]; 1 mg/kg): 36.3 ± 2.67 μg/10 g b. wt.

CCCCC1C(=O)N(c2ccccc2)N(c2ccccc2)C1=O [phenylbutazone]
Leakage of dye ([1]; 50 mg/kg oral): 39.0 ± 3.45 μg/10 g b. wt.
